Assay results from patent publication US10815200B2, “18F—tagged inhibitors of prostate specific membrane antigen (PSMA) and their use as imaging agents for prostate cancer” (DEUTSCHES KREBSFORSCHUNGSZENTRUM, priority 2015, dated 2020).
Square brackets hold non-standard residues; d marks the D form. Peptide text beside a SMILES is read from it. * marks the point of attachment. X1 = O=C(O)CCC(NC(=O)NC(CCCCN*)C(=O)O)C(=O)O; 2Nal = N[CH](Cc1ccc2ccccc2c1)C(=O)O; Nicotinoyl(6-F) = O=C(c1ccc(F)nc1)*; 4Amb = NCc1ccc(C(=O)O)cc1

Legend:
LNCaP cells = assay: Specific cell uptake and internalization in LNCaP cells; assay type: cell-based, human; details: for Cell surface / Internalised: 30 nM radiolabeled compound, 45 min, 37° C., specific (PMPA block); for Internalized fraction: (Internalized activity/total activity)*100
Protocol: During cell culture, cells were grown at 37° C. in an incubator with humidified air, equilibrated with 5% CO2. […] To determine the specific cell uptake and internalization, 10^5 cells were seeded in poly-L-lysine coated 24-well cell culture plates 24 h before incubation. After washing, the cells were incubated with 30 nM of the radiolabeled compounds for 45 min at 37° C. […] Cellular uptake was terminated by washing 3 times with 1 mL of ice-cold PBS. […] The cells were washed with 1 mL of ice-cold PBS and lysed using 0.3 N NaOH (0.5 mL). The surface-bound and the internalized fractions were measured in a gamma counter. The cell uptake was calculated as percent of the initially added radioactivity bound to 10^5 cells [% ID/10^5 cells].

PSMA = molecular target: T1, PSMA (Homo sapiens, UniProt Q04609); assay: Competitive cell binding assay (binding affinity) on LNCaP cells against 68Ga-labeled [Glu-urea-Lys(Ahx)]2-HBED-CC; details: competition with 68Ga-labeled [Glu-urea-Lys(Ahx)]2-HBED-CC, non-radioactive reference compounds
T1 construct: host or cells: LNCaP cells
T1 sequence (Q04609 whole entry): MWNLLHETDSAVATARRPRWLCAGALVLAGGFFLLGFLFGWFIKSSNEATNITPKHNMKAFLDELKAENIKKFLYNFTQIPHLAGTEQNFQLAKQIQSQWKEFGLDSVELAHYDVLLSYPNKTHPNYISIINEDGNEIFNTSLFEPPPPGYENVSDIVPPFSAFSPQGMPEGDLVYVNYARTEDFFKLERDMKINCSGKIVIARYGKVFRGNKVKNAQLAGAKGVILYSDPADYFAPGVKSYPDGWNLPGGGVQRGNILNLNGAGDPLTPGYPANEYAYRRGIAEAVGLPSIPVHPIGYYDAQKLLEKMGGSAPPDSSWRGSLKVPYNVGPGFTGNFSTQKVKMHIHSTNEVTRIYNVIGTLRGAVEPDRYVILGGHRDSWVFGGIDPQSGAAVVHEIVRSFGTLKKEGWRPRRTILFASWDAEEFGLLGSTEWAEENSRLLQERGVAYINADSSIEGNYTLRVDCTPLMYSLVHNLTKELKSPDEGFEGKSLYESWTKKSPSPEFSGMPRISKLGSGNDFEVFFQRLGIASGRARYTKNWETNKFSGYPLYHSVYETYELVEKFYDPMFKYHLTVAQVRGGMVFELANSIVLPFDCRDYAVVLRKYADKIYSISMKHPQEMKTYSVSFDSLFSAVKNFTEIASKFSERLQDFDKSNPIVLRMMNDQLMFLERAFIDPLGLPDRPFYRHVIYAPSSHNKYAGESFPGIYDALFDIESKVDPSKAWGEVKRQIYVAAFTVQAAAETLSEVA
Protocol: For binding studies and in vivo experiments LNCaP cells (metastatic lesion of human prostatic adenocarcinoma, ATCC CRL-1740) were cultured in RPMI medium supplemented with 10% fetal calf serum and Glutamax (PAA, Austria). During cell culture, cells were grown at 37° C. in an incubator with humidified air, equilibrated with 5% CO2. The cells were harvested using trypsin-ethylenediaminetetraacetic acid (trypsin-1.5 EDTA; 0.25% trypsin, 0.02% EDTA, all from PAA, Austria) and washed with PBS.
The competitive cell binding assay and internalization experiments were performed as described previously (Eder et al. Bioconjugate Chem. 2012, 23 (4), 688-697). Briefly, the respective cells (10^5 per well) were incubated with the radioligand (^68Ga-labeled [Glu-urea-Lys(Ahx)]2-HBED-CC (Schafer et al. EJNMMI Research 2012, 2:23 doi:10.1186/2191-219X-2-23))) in the presence of 12 different concentrations of analyte (0-5000 nM, 100 μL/well). After incubation, washing was carried out using a multiscreen vacuum manifold (Millipore, Billerica, Mass.). Cell-bound radioactivity was measured using a gamma counter (Packard Cobra II, GMI, Minnesota, USA). The 50% inhibitory concentration (IC50) was calculated by fitting the data using a nonlinear regression algorithm (GraphPad Software). Experiments were performed three times. Reference is made to Table A below.

IC50 (PSMA) [nM] | Compound | Cell surface (LNCaP cells) [% ID/10^5 cells] | Internalised (LNCaP cells) [% ID/10^5 cells] | Internalized fraction (LNCaP cells) [%]
 | O=C(O)CCC(NC(=O)NC(CCCCNC(=O)C(Cc1ccc2ccccc2c1)NC(=O)c1ccc(CNC(=O)C(CNC(=O)C(CNC(=O)c2ccc([18F])nc2)S(=O)(=O)O)S(=O)(=O)O)cc1)C(=O)O)C(=O)O (stereo not shown) [PSMA-1027, (Glu)-(Urea)-(Lys)-(2-Nal)-(Bn)-(Sala)-(Sala)-FN] | 0.9 | 1.4 | 60
 | O=C(O)CC[C@@H](NC(=O)N[C@H](CCCCNC(=O)[C@@H](Cc1ccc2ccccc2c1)NC(=O)c1ccc(CNC(=O)[C@@H](CCC(=O)O)NC(=O)c2ccnc([18F])c2)cc1)C(=O)O)C(=O)O [PSMA-1015, (Glu)-(Urea)-(Lys)-(2-Nal)-(Bn)-(Glu)-FN] | 14.3 | 6.0 | 30
 | O=C(O)CC[C@H](NC(=O)N[C@@H](CCCCNC(=O)[C@@H](Cc1ccc2ccccc2c1)NC(=O)CC[C@@H](NC(=O)[C@@H](CCC(=O)O)NC(=O)c1ccnc([18F])c1)C(=O)O)C(=O)O)C(=O)O [PSMA-1012, (Glu)-(Urea)-(Lys)-(2-Naphthylalanine)-(γGlu)-(Glu)-FN] | 6.9 | 2.7 | 28
7 | O=C(O)CCC(NC(=O)NC(CCCCNC(=O)C(Cc1ccc2ccccc2c1)NC(=O)c1ccc(CNC(=O)C(CNC(=O)C(CNC(=O)c2ccc(F)nc2)S(=O)(=O)O)S(=O)(=O)O)cc1)C(=O)O)C(=O)O (stereo not shown) [PSMA-1027, (Glu)-(Urea)-(Lys)-(2-Nal)-(Bn)-(Sala)-(Sala)-FN] |  |  | 
14 | O=C(O)CCC(NC(=O)NC(CCCCNC(=O)C(Cc1ccc2ccccc2c1)NC(=O)c1ccc(CNC(=O)C(CNC(=O)c2ccc(F)nc2)S(=O)(=O)O)cc1)C(=O)O)C(=O)O (stereo not shown) [PSMA-1026, (Glu)-(Urea)-(Lys)-(2-Nal)-(Bn)-(Sala)-FN] |  |  | 
 | O=C(O)CC[C@@H](NC(=O)N[C@H](CCCCNC(=O)[C@@H](Cc1ccc2ccccc2c1)NC(=O)[C@@H](CCC(=O)O)NC(=O)[C@@H](CCC(=O)O)NC(=O)c1ccnc([18F])c1)C(=O)O)C(=O)O [PSMA-1011, (Glu)-(Urea)-(Lys)-(2-Naphthylalanine)-(Glu)-(Glu)-FN] | 4.1 | 0.7 | 15
 | O=C(O)CCC(NC(=O)NC(CCCCNC(=O)C(Cc1ccc2ccccc2c1)NC(=O)c1ccc(CNC(=O)C(CNC(=O)c2ccc([18F])nc2)S(=O)(=O)O)cc1)C(=O)O)C(=O)O (stereo not shown) [PSMA-1026, (Glu)-(Urea)-(Lys)-(2-Nal)-(Bn)-(Sala)-FN] | 1.3 | 1.3 | 50
 | O=C(O)CCC(NC(=O)NC(CCCCNC(=O)C(Cc1ccc2ccccc2c1)NC(=O)CCC(NC(=O)CCC(NC(=O)c1ccc([18F])nc1)C(=O)O)C(=O)O)C(=O)O)C(=O)O (stereo not shown) [PSMA-1022, (Glu)-(Urea)-(Lys)-(2-Nal)-(γGlu)-(γGlu)-FN] | 3.5 | 1.0 | 22
14 | O=C(O)CCC(NC(=O)NC(CCCCNC(=O)C(Cc1ccc2ccccc2c1)NC(=O)c1ccc(CNC(=O)C(CCC(=O)O)NC(=O)C(CCC(=O)O)NC(=O)C(CCC(=O)O)NC(=O)c2ccc(F)nc2)cc1)C(=O)O)C(=O)O (stereo not shown) [PSMA-1018, (Glu)-(Urea)-(Lys)-(2-Nal)-(Bn)-(Glu)-(Glu)-(Glu)-FN] ({Nicotinoyl(6-F)}-EEE[4Amb][2Nal]-X1; configuration not given here) |  |  | 
12 | O=C(O)CCC(NC(=O)NC(CCCCNC(=O)C(Cc1ccc2ccccc2c1)NC(=O)C1CCC(CNC(=O)C(CCC(=O)O)NC(=O)C(CCC(=O)O)NC(=O)c2ccc(F)nc2)CC1)C(=O)O)C(=O)O (stereo not shown) [PSMA-1019, (Glu)-(Urea)-(Lys)-(2-Nal)-(Chx)-(Glu)-(Glu)-FN] |  |  | 
 | O=C(O)CCC(NC(=O)NC(CCCCNC(=O)C(Cc1ccc2ccccc2c1)NC(=O)CCC(NC(=O)C(CCC(=O)O)NC(=O)C(CCC(=O)O)NC(=O)c1ccc([18F])nc1)C(=O)O)C(=O)O)C(=O)O (stereo not shown) [PSMA-1020, (Glu)-(Urea)-(Lys)-(2-Nal)-(γGlu)-(Glu)-(Glu)-FN] | 6.8 | 1.5 | 18
9 | O=C(O)CCC(NC(=O)NC(CCCCNC(=O)C(Cc1ccc2ccccc2c1)NC(=O)CCC(NC(=O)C(CCC(=O)O)NC(=O)C(CCC(=O)O)NC(=O)c1ccc(F)nc1)C(=O)O)C(=O)O)C(=O)O (stereo not shown) [PSMA-1020, (Glu)-(Urea)-(Lys)-(2-Nal)-(γGlu)-(Glu)-(Glu)-FN] |  |  | 
 | O=C(O)CCC(NC(=O)NC(CCCCNC(=O)C(Cc1ccc2ccccc2c1)NC(=O)c1ccc(CNC(=O)C(CCC(=O)O)NC(=O)C(CCC(=O)O)NC(=O)c2ccc([18F])nc2)cc1)C(=O)O)C(=O)O [PSMA-1023, (Glu)-(Urea)-(Lys)-(2-Nal)-(Bn)-(D-Glu)-(D-Glu)-FN] | 6.5 | 3.2 | 33
 | O=C(O)CCC(NC(=O)NC(CCCCNC(=O)C(Cc1ccc2ccccc2c1)NC(=O)c1ccc(CNC(=O)C(CCC(=O)O)NC(=O)C(CCC(=O)O)NC(=O)c2ccc([18F])nc2)cc1)C(=O)O)C(=O)O [PSMA-1024, (Glu)-(Urea)-(Lys)-(2-Nal)-(Bn)-(D-Glu)-(Glu)-FN] | 5.3 | 2.1 | 28
 | O=C(O)CCC(NC(=O)NC(CCCCNC(=O)C(Cc1ccc2ccccc2c1)NC(=O)c1ccc(CNC(=O)C(CCC(=O)O)NC(=O)C(CCC(=O)O)NC(=O)C(CCC(=O)O)NC(=O)c2ccc([18F])nc2)cc1)C(=O)O)C(=O)O (stereo not shown) [PSMA-1018, (Glu)-(Urea)-(Lys)-(2-Nal)-(Bn)-(Glu)-(Glu)-(Glu)-FN] | 1.1 | 0.9 | 45
8 | O=C(O)CCC(NC(=O)NC(CCCCNC(=O)C(Cc1ccc2ccccc2c1)NC(=O)CCC(NC(=O)CCC(NC(=O)c1ccc(F)nc1)C(=O)O)C(=O)O)C(=O)O)C(=O)O (stereo not shown) [PSMA-1022, (Glu)-(Urea)-(Lys)-(2-Nal)-(γGlu)-(γGlu)-FN] |  |  | 
5 | O=C(O)CCC(NC(=O)NC(CCCCNC(=O)C(Cc1ccc2ccccc2c1)NC(=O)c1ccc(CNC(=O)C(CCC(=O)O)NC(=O)C(CCC(=O)O)NC(=O)c2ccc(F)nc2)cc1)C(=O)O)C(=O)O (stereo not shown) [PSMA-1007, (Glu)-(Urea)-(Lys)-(2-Nal)-(Bn)-(Glu)-(Glu)-FN] |  |  | 
8 | O=C(O)CCC(NC(=O)NC(CCCCNC(=O)C(Cc1ccc2ccccc2c1)NC(=O)c1ccc(CNC(=O)C(CCC(=O)O)NC(=O)C(CCC(=O)O)NC(=O)c2ccc(F)nc2)cc1)C(=O)O)C(=O)O [PSMA-1024, (Glu)-(Urea)-(Lys)-(2-Nal)-(Bn)-(D-Glu)-(Glu)-FN] |  |  | 
4 | O=C(O)CC[C@@H](NC(=O)N[C@H](CCCCNC(=O)[C@@H](Cc1ccc2ccccc2c1)NC(=O)c1ccc(CNC(=O)[C@@H](CCC(=O)O)NC(=O)c2ccnc(F)c2)cc1)C(=O)O)C(=O)O [PSMA-1015, (Glu)-(Urea)-(Lys)-(2-Nal)-(Bn)-(Glu)-FN] |  |  | 
 | O=C(O)CCC(NC(=O)NC(CCCCNC(=O)C(Cc1ccc2ccccc2c1)NC(=O)C1CCC(CNC(=O)C(CCC(=O)O)NC(=O)C(CCC(=O)O)NC(=O)c2ccc([18F])nc2)CC1)C(=O)O)C(=O)O (stereo not shown) [PSMA-1019, (Glu)-(Urea)-(Lys)-(2-Nal)-(Chx)-(Glu)-(Glu)-FN] | 5.5 | 1.9 | 26
8 | O=C(O)CCC(NC(=O)NC(CCCCNC(=O)C(Cc1ccc2ccccc2c1)NC(=O)c1ccc(CNC(=O)C(CCC(=O)O)NC(=O)C(CCC(=O)O)NC(=O)c2ccc(F)nc2)cc1)C(=O)O)C(=O)O [PSMA-1023, (Glu)-(Urea)-(Lys)-(2-Nal)-(Bn)-(D-Glu)-(D-Glu)-FN] |  |  | 

Compound | IC50 (PSMA) [nM] | Cell surface (LNCaP cells) [% ID/10^5 cells] | Internalised (LNCaP cells) [% ID/10^5 cells] | Internalized fraction (LNCaP cells) [%]
O=C(O)CC[C@@H](NC(=O)N[C@H](CCCCNC(=O)[C@@H](Cc1ccc2ccccc2c1)NC(=O)[C@@H](CCC(=O)O)NC(=O)[C@@H](CCC(=O)O)NC(=O)c1ccnc(F)c1)C(=O)O)C(=O)O [PSMA-1011, (Glu)-(Urea)-(Lys)-(2-Naphthylalanine)-(Glu)-(Glu)-FN] | 7 |  |  | 
O=C(O)CC[C@H](NC(=O)N[C@@H](CCCCNC(=O)[C@@H](Cc1ccc2ccccc2c1)NC(=O)CC[C@@H](NC(=O)[C@@H](CCC(=O)O)NC(=O)c1ccnc(F)c1)C(=O)O)C(=O)O)C(=O)O [PSMA-1012, (Glu)-(Urea)-(Lys)-(2-Naphthylalanine)-(γGlu)-(Glu)-FN] | 7 |  |  | 
(Glu)-(Urea)-(Lys)-(2-Nal)-(Bn)-(Gla)-FN [PSMA-1025] | 9 | 4.3 | 3.1 | 42
